In patent US10273237B2, “Imidazopyridazine compounds useful as modulators of IL-12, IL-23 and/or IFN-α responses” (BRISTOL-MYERS SQUIBB COMPANY, priority 2013, dated 2019):
Several values for one entry are separate records, joined by “and”; a condition that tells them apart may be missing. Equal values may be shown once. Read-outs that look alike come from different tables or passages of the source.

Key:
[1] = target: T1, His-tagged protein corresponding to amino acids 575-869 of human Tyk2 (Homo sapiens, UniProt P29597); test: Probe displacement assay (scintillation proximity, radiolabeled probe); type: binding; conditions: 2.5 nM Tyk2 (575-869), 40 nM [3H] probe, 30 minutes at room temperature
T1 construct: made in house
T1 sequence (P29597 with tags, fused parts or gaps): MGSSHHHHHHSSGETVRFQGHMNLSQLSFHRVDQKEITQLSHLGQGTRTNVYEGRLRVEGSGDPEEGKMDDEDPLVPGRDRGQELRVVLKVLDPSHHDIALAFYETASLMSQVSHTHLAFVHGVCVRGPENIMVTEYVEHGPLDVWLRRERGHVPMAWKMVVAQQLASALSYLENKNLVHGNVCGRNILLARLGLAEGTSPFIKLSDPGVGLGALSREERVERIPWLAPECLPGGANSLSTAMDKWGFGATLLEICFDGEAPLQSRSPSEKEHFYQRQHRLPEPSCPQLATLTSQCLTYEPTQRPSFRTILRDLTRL
Method: The preparation of radiolabeled probe, (R)—N-(1-(3-(8-methyl-5-(methylamino)-8H-imidazo[4,5-d]thiazolo[5,4-b]pyridin-2-yl)phenyl)ethyl)-2-([^3H]methylsulfonyl)benzamide, was performed as described below: […]

[2] = test system: IL-23-stimulated Kit225 T cells with STAT-dependent luciferase reporter; test: Kit225 T cell assay, STAT-dependent luciferase reporter, IL-23 stimulated; type: cell-based, human; conditions: read-out: IL-23 Kit225 Reporter, LE (IC50)
How it was run: (§1)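 Kit225 T cells carrying a stably integrated STAT-dependent luciferase reporter, in RPMI with 10% heat-inactivated FBS, stimulated with 20 ng/mL human recombinant IL-23 or 200 U/mL human recombinant IFNα for 5-6 h. Luciferase expression read by Steady-Glo luminescence.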

[3] = test system: IFNα-stimulated Kit225 T cells with STAT-dependent luciferase reporter; test: Kit225 T cell assay, STAT-dependent luciferase reporter, IFNα stimulated; type: cell-based, human; conditions: 5-6 hours, read-out: IFNa Kit225 Reporter, LE (IC50)
How it was run: as §1

[4] = Homo sapiens, KIT225, 20 ng/mL human recombinant IL-23, 5-6 hours
[5] = Homo sapiens, KIT225, 200 U/mL human recombinant IFNα
[6] = 200 U/mL human recombinant IFNα
[7] = 20 ng/mL human recombinant IL-23, 5-6 hours

Row | EC50 [1] | IC50 [2, 4] [nM] | IC50 [3, 5] [nM] | IC50 [3, 6] [nM] | IC50 [2, 7] [nM] | Compound
1 | 4 nM | – | – | – | – | CNc1cc(Nc2cccn(-c3cnccn3)c2=O)nn2c(C(=O)NCC(C)(C)CO)cnc12 [Example 109]
2 | 19 nM | 430 | 200 | – | – | CNc1cc(Nc2cccn(-c3ccc(C(F)(F)F)cc3)c2=O)nn2c(C(=O)NCC3(CO)CC3)cnc12 [Example 133]
3 | 8 nM | 300 | 190 | – | – | CNc1cc(Nc2cccn(-c3cccc(C#N)c3)c2=O)nn2c(C(=O)NC3CC3)cnc12 [Example 126]
4 | 29 nM | 220 | 380 | – | – | CCC(CC)CNC(=O)c1cnc2c(NC)cc(Nc3cccn(-c4ccccc4)c3=O)nn12 [Example 187]
5 | 4 nM | 150 | 80 | – | – | CNc1cc(Nc2cccn(-c3ccc(C(F)F)cc3)c2=O)nn2c(C(=O)NCC(C)(C)CO)cnc12 [Example 124]
6 | 12 nM | 140 | 170 | – | – | CNc1cc(Nc2cccn(-c3ccccn3)c2=O)nn2c(C(=O)NCCF)cnc12 [Example 101]
7 | 5 nM | 20 | 50 | – | – | CNc1cc(Nc2cccn(-c3nccs3)c2=O)nn2c(C(=O)NC3CC3)cnc12 [Example 35]
8 | 15 nM | 70 | 140 | – | – | CNc1cc(Nc2cccn(-c3cnc(C)cn3)c2=O)nn2c(C(=O)NCC(C)(C)CO)cnc12 [Example 6, N-(3-Hydroxy-2,2-dimethylpropyl)-8-(methylamino)-6-((1-(5-methylpyrazin-2-yl)-2-oxo-1,2-dihydropyridin-3-yl)amino)imidazo[1,2-b]pyridazine-3-carboxamide]
9 | 17 nM | 50 | 20 | – | – | CNc1cc(Nc2ccnn(-c3ccccc3)c2=O)nn2c(C(=O)N[C@@H]3C[C@@H]3F)cnc12 [Example 180]
10 | 8 nM | 350 | 330 | – | – | CNc1cc(Nc2cccn(-c3ccc(S(C)(=O)=O)cc3)c2=O)nn2c(C(=O)NC3CC3)cnc12 [Example 202]
11 | 6 nM | 30 | 30 | – | – | CNc1cc(Nc2cccn(-c3cccc(C(C)O)n3)c2=O)nn2c(C(=O)NC3CCC3)cnc12 (centres unmarked) [Example 86]
12 | 73 nM | 360 | 810 | – | – | CNc1cc(Nc2cccn(C)c2=O)nn2c(C(=O)NCC3CCC3)cnc12 [Example 214]
13 | 16 nM | 60 | 60 | – | – | CNc1cc(Nc2cccn(-c3ccccn3)c2=O)nn2c(C(=O)NCC(C)(C)CO)cnc12 [Example 197]
14 | 14 nM | 190 | 150 | – | – | CNc1cc(Nc2cccn(-c3ccc(N4CCOCC4)cc3)c2=O)nn2c(C(=O)NC3(C#N)CC3)cnc12 [Example 140]
15 | 20 nM | 210 | 180 | – | – | CNc1cc(Nc2cccn(-c3cccc(F)n3)c2=O)nn2c(C(=O)N[C@@H]3CCOC3)cnc12 [Example 61]
16 | 7 nM | 290 | 260 | – | – | CNc1cc(Nc2cccn(C3CCN(C(=O)c4ncc[nH]4)CC3)c2=O)nn2c(C(=O)NC3CC3)cnc12 [Example 245]
17 | 27 nM | 220 | 80 | – | – | CNc1cc(Nc2cccn(-c3ccccn3)c2=O)nn2c(C(=O)NC3CC3)cnc12 [Example 32]
18 | 16 nM | 200 | 100 | – | – | CNc1cc(Nc2cccn(-c3ccc(C#N)cc3)c2=O)nn2c(C(=O)NCC(C)(C)CO)cnc12 [Example 25]
19 | 13 nM | 180 | 160 | – | – | CNc1cc(Nc2cccn(-c3cccnn3)c2=O)nn2c(C(=O)NC(C)C)cnc12 [Example 106]

Row | EC50 [1] | IC50 [2, 4] [nM] | IC50 [3, 5] [nM] | IC50 [3, 6] [nM] | IC50 [2, 7] [nM] | Compound
20 | 2 nM | 200 | 120 | – | – | CNc1cc(Nc2cccn(-c3ncc(C)cn3)c2=O)nn2c(C(=O)N[C@@H]3C[C@@H]3F)cnc12 [Example 83]
21 | 6 nM | 140 | 30 | – | – | CC[C@@H](C)NC(=O)c1cnc2c(NC)cc(Nc3cccn(-c4ccn(C)n4)c3=O)nn12 [Example 79]
22 | 18 nM | 270 | 150 | – | – | CNc1cc(Nc2cc(F)cn(CCOC)c2=O)nn2c(C(=O)NC3CC3)cnc12 [Example 118]
23 | 12 nM | 90 | 30 | – | – | CNc1cc(Nc2cc(F)cn(-c3ccc(C)nn3)c2=O)nn2c(C(=O)NC3CCC3)cnc12 [Example 93]
24 | 5 nM | 340 | 110 | – | – | CNc1cc(Nc2cccn(-c3cccc(C(C)O)n3)c2=O)nn2c(C(=O)NC3CC3)cnc12 (centres unmarked) [Example 85]
25 | 15 nM and 22 nM | – | 180 | 260 | – | CNc1cc(Nc2cccn(C)c2=O)nn2c(C(=O)NCC(C)(C)C)cnc12 [Example 207]
26 | 23 nM | 260 | 290 | – | – | CNc1cc(Nc2cccn(-c3ccccn3)c2=O)nn2c(C(=O)NCc3nccs3)cnc12 [Example 190]
27 | 21 nM | 70 | 230 | – | – | CNc1cc(Nc2cccn(-c3ccccc3)c2=O)nn2c(C(=O)N[C@H]3CCCC[C@H]3O)cnc12 [Example 188]
28 | 11 nM | 170 | 80 | – | – | CNc1cc(Nc2cccn(-c3ccc(C(F)(F)F)cc3)c2=O)nn2c(C(=O)NCC(C)(C)CO)cnc12 [Example 136]
29 | 9 nM | 170 | 110 | – | – | CC[C@@H](C)NC(=O)c1cnc2c(NC)cc(Nc3cccn(-c4ccccn4)c3=O)nn12 [Example 74]
30 | 7 nM | 30 | 20 | – | – | CNc1cc(Nc2cccn(-c3cc(C)n(C)n3)c2=O)nn2c(C(=O)NC3CCC3)cnc12 [Example 155]
31 | 7 nM | 140 | 110 | – | – | CNc1cc(Nc2cccn(-c3ccc(C)nn3)c2=O)nn2c(C(=O)NC3CC3)cnc12 [Example 63]
32 | 14 nM | 400 | 320 | – | – | CNc1cc(Nc2cccn(-c3ccc(C(F)(F)F)cc3)c2=O)nn2c(C(=O)NCC(C)(CO)CO)cnc12 [Example 132]
33 | 5 nM | 30 | 10 | – | – | CNc1cc(Nc2cccn(-c3cccc(F)n3)c2=O)nn2c(C(=O)N[C@@H]3C[C@@H]3F)cnc12 [Example 145]
34 | 8 nM | 240 | 70 | – | – | CNc1cc(Nc2cccn(C3(C)CC3)c2=O)nn2c(C(=O)NCC(C)(C)CO)cnc12 [Example 163]
35 | 57 nM | 360 | 490 | – | – | CNc1cc(Nc2cccn(C)c2=O)nn2c(C(=O)NC(C)(C)C)cnc12 [Example 211]
36 | – | – | – | 350 | 850 | CNc1cc(Nc2cccn(-c3ccccn3)c2=O)nn2c(C(=O)NC3CCC(O)C3(C)C)cnc12 (centres unmarked) [Example 236]
37 | – | – | – | 310 | 640 | CNc1cc(Nc2cccn(C)c2=O)nn2c(C(=O)NC(C)(C)C#N)cnc12 [Example 130]
